Test results taken from US20040096356A1, “Assay device for determining analytes in a liquid dairy product” (priority 1997, published 2004).

Target: T1, enzyme R39 (soluble exocellular D-alanyl-D-alanine carboxypeptidase produced by Actinomadura R39) (Actinomadura sp., UniProt P39045)
T1 construct: soluble exocellular D-alanyl-D-alanine carboxypeptidase produced by Actinomadura R39, obtained by the procedure described in J.-M. Frere et al; made in house; host or cells: Actinomadura R39 (natural producer, secreted enzyme)
T1 sequence (P39045 50-515): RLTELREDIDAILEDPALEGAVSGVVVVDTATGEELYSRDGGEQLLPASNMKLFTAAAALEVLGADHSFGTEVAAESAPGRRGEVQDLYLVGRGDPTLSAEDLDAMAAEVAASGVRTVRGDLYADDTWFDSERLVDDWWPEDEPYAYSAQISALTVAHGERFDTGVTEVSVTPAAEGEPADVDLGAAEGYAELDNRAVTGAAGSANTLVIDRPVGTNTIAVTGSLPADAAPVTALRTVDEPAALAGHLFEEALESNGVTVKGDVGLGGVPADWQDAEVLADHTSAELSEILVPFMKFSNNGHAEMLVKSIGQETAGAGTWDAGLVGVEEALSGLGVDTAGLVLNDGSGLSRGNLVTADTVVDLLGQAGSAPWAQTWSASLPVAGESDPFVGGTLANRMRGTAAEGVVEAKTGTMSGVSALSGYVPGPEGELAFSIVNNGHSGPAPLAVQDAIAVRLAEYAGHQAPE
Experiment: Test 2, sensitive test (7 minutes): strip test for β-lactam antibiotics in milk using enzyme R39
Type: binding
Details: for Intensity 1st band: scale 0 to 10, reference band 6, 47° C., 5 min incubation + 2 min migration
Procedure: The identifier used in this example is soluble exocellular D-alanyl-D-alanine carboxypeptidase produced by Actinomadura R39, obtained by the procedure described in J.-M. Frere et al., Antimicrobial Agents and Chemotherapy, 18(4), 506-510 (1980).
250 μl of an aqueous solution of enzyme R39 having a concentration of 1 mg/ml are dialysed for 24 hours against 500 ml of HNM buffer (Hepes 10 mM, pH 8, NaCl 10 mM, MgCl2 5 mM). To this dialysed solution of enzyme R39 are then added 2 ml of bicarbonate buffer (0.1 M sodium bicarbonate, pH 9) and 250 μl of a solution of N-hydroxysuccinimide 6-(biotinamido)caproic ester having a concentration of 5 mg/ml in anhydrous DMF. This solution is stirred gently in the LABINCO stirrer for tubes on a rotary axis (available from VEL, Belgium) at a rate of 2 revolutions/minute for 3 hours at room temperature and away from light. The solution thus obtained is dialysed against the HNM buffer ([…]) for 24 hours. In this way a solution of biotinylated enzyme R39 is obtained which is diluted in HNM-BSA buffer (Hepes 500 mM; pH 8, NaCl 500 mM, MgCl2 250 mM, BSA 10 mg/ml) to a concentration of 100 μg of enzyme R39 per ml of buffer. This solution is stored at −20° C.
As the marker use is made of particles of gold having a diameter of 40 nm on which a goat anti-biotin antibody has been deposited in the form of suspensions in a 2 mM aqueous sodium tetraborate solution, with a pH of 7.2, stabilized by 0.1% of sodium azide (available from British Biocell (Ref. GAB40)). The optical density of these suspensions at 520 nm is approximately 10 and the protein concentration is approximately 24 μg/ml.
The biotinylated enzyme R39 solution prepared in Example 2.2.1 is diluted 50 times with the HNM-BSA buffer (Hepes 500 mM, pH 8, NaCl 500 mM, MgCl2 250 mM, BSA 10 mg/ml). At room temperature, 17.5 parts by volume of this dilute biotinylated enzyme R39 solution, 9.27 parts by volume of the gold particle suspension used to label the enzyme R39 and 6 parts by volume of reference gold particle suspension are mixed (see Example 2.3).
The first capture substance makes it possible to fix the identifiers coupled with the free markers present in excess relative to the quantity of antibiotic present in the sample.
Assay devices containing membranes (2), (3) and (4) are used, assembled in accordance with the procedure described in Example 1.1. The membrane (3) of these devices carries on the proximal side the capture substance described in Example 2.4.1. and on the distal side the capture substance described in Example 2.4.2. The capture substances were deposited in accordance with the procedure described in Example 1.2.
Six samples of milk are prepared, containing 0; 2; 2.5; 3; 4 and 5 ppb, respectively, of penicillin G. Each of these solutions is then analysed as follows.
An aliquot is taken of 200 μl of milk sample and 32.8 μl of solution B prepared in Example 2.2.3, and is placed in an Eppendorf tube. This mixture is incubated at 47° C. for 5 minutes. An assay device is then placed vertically in the Eppendorf tube such that the first end of the assay device is in contact with the mixture. The mixture is allowed to migrate over the assay device while the assembly is incubated at 47° C. for 2 minutes.
An intensity value ranging from 0 to 10 is awarded to the bands detected, the value 10 being given to the most intense band and the value 0 being given to the least intense band. On this scale, a value 6 is awarded to the reference band. The intensity of the signal observed in the first detection band is inversely proportional to the quantity of penicillin G present in the sample.
In this example, the test is considered to be positive when the first band has an intensity which is lower than that of the reference band. The results shown in Table 2 indicate that this test makes it possible to detect in 7 minutes down to 2.5 ppb of penicillin G in a milk sample.

## CC1(C)S[C@@H]2[C@H](NC(=O)Cc3ccccc3)C(=O)N2[C@H]1C(=O)O [Penicillin G, penicillin G]
2 ppb penicillin G in milk
  Intensity 1st band: 7
2.5 ppb penicillin G in milk
  Intensity 1st band: 5
3 ppb penicillin G in milk
  Intensity 1st band: 4
4 ppb penicillin G in milk
  Intensity 1st band: 1
5 ppb penicillin G in milk
  Intensity 1st band: 0
In 7 minutes, positive when first band is less intense than reference band
  lowest concentration detected in a milk sample: 2.5 ppb
